Patent publication US20220087275A1, “MAGNESIUM ION AS ANTIBACTERIAL AGENT” (THE STATE OF ISRAEL, MINISTRY OF AGRICULTURE & RURAL …, priority 2016, published 2022)
Read-outs that look alike come from different tables or passages of the source.

What was measured:
[1] = tested on: Bacillus subtilis wild strain NCIB3610; assay: Pellicle (biofilm) formation in LBGM broth; assay type: cell-based; conditions: for biofilm formation by B. subtilis: NaCl or CaCl2 added to LBGM, results not shown; for pellicle formation by B. subtilis: LBGM medium, 30° C., 24 h
Description: Plates were incubated at 30° C. for 24 h.

epsA-O operon = assay: β-Galactosidase transcriptional fusion, matrix gene expression (eps); assay type: cell-based, Bacillus subtilis; conditions: for expression of the eps operon: similar concentrations of NaCl or CaCl2
From the text: (§1) To analyze the effect of magnesium ions on matrix gene expression a transcriptional fusions of the promoters for eps and tapA to the gene encoding β galactosidase were used. Samples of generated pellicles as described above were collected and resuspended in phosphate-buffered saline (PBS) buffer. Typical long bundled chains of cells in the biofilm colony were disrupted using mild sonication as described previously. Optical density of the cell samples was normalized using OD600. One milliliter of cell suspensions was collected and assayed for (3-Galactosidase activity as described previously.
(§2) The effect of Mg^2+ ions on matrix gene expression was examined by using transcriptional fusions of the promoters for epsA-O and tapA to the gene encoding β galactosidase.

tapA operon [2] = assay: β-Galactosidase transcriptional fusion, matrix gene expression (tapA); assay type: cell-based, Bacillus subtilis; conditions: for expression of the tapA operon: similar concentrations of NaCl or CaCl2
From the text: as §1, §2

B. subtilis NCIB3610 = conditions: LBGM, tested concentrations (5-100 mM MgCl2)
Description: Initially, the cells were grown in shaking cultures over night at 23° C./150 rpm in LB to around 2×10^9 CFU per ml. […] The absorbance of the cultures at 600 nm was measured periodically for each culture for 9 hours. Each condition had 3 replicates, and the growth curve experiments were repeated twice.

B. subtilis [3] = conditions: at 50 mM and higher (50 and 80 mM tested)
From the text: Further, the effect of magnesium ions on biofilm formation by B. subtilis within orange juice enriched medium, was examined.

B. subtilis [4] = tested on: B. subtilis
Description: The effect of magnesium ions on biofilm formation within cow's milk was examined. A skilled artisan will appreciate that magnesium concentration within cow's milk typically ranges between 4-6 mM.

tapA operon [5] = conditions: increase of 1, 3 or 5 mM; particularly 5 mM MgCl2
Description: The effect of increase in concentration of Mg′ within milk on the expression of tapA operon, which is one of the major operon for matrix production, was examined. For this purpose, B. subtilis were grown within cow's milk and cow's milk with an increase of 1 mM, 3 mM or 5 mM in concentration of magnesium ions. Further, transcriptional fusions of tapA promoter to the gene encoding cyan fluorescent protein (CFP) were utilized.

B. subtilis [6] = conditions: milk supplemented with additional 3 mM or 5 mM MgCl2
From the text: The effect of increase in the concentration of magnesium ions was examined. […] The survival rate of bacteria following pasteurization was examined.

[7] = Description: In order to examine milk clotting parameters, milk samples obtained from the dairy farm of the Agricultural Research Organization (ARO; Bet Dagan, Israel). […] Milk-clotting parameters such as rennet clotting time (RCT; min) and curd firmness (CF; V) after 90 min (CF-90) which are measured with an Optigraph instrument (Ysebaert, Frepillon, France) as described by Leitner et al. (2011). Results are presented in a graph. The point in which the curve is split into two curves, represents the rennet Clotting Time (RCT), which is the time between the addition of the clotting enzyme and the beginning of the coagulation process. The curd firmness is derived from the distance of the two curves in the graph 30 min after the addition of the clotting enzyme, or 90 minutes after the addition of the clotting enzyme.
[8] = 50 mM or 100 mM MgCl2; B. subtilis culture, 5 hours, 37° C.
Description: Cultures were incubated for 5 hours at 37° C. and 50 rpm and pH was measured every hour using pH strips.

[9] = tested on: Bacillus subtilis wild strain NCIB3610; conditions: high concentrations of Mg ions; solid LBGM, 30° C., 72 h
Description: For routine growth, all strains were propagated in Lysogeny broth (LB; 10 g of tryptone, 5 g of yeast extract and 5 g of NaCl per liter) or on solid LB medium supplemented with 1.5% agar. For biofilm generation, bacteria were grown to stationary phase in LB medium at 37° C. in shaking culture to around 1×10^8 CFU per ml. Biofilms were generated at 30° C. in the biofilm promoting medium LBGM (LB+1% (v/v) glycerol+0.1 mM MnSO4). […] For colony type biofilm formation, 3 μl of the cells (around 3×10^5 CFU) was spotted onto LBGM medium solidified with 1.5% agar as described previously. Plates were incubated at 30° C. for 72 h prior to analysis. For pellicle formation, 5 μl of the cells (around 5×10^5 CFU) was mixed within 4 ml of LBGM broth in 12-well plates (Costar). Plates were incubated at 30° C. for 24 h. Images were taken using a Zeiss Stemi 2000-C microscope with an axiocam ERc 5s camera.

[10] = tested on: B. subtilis cells (YC161 with Pspank-gfp); conditions: 25 mM MgCl2 and higher; 24 h in LBGM
Description: For fluorescent microscopy, the strain YC161 that produced GFP constitutively, was used. The strain was first grown in shaking culture for 5 h 37° C./150 rpm in LB to around 1×10^8 CFU per ml. Next, 5 μl (around 5×10^5 CFU) of suspension from the generated culture was introduced into 4 ml of LBGM medium and incubated at 30° C. for 24 h statically. Afterwards, one milliliter of suspension from each sample was collected, mildly sonicated (10 sec/20% Amp/5) and centrifuged at 5000 rpm for 2 min. Next, the supernatant was removed and the pellet was re-suspended by pipetting. For microscopic observation, 34, from the samples were transferred onto a glass slide and visualized in a transmitted light microscope using Nomarski differential interference contrast (DIC), at ×40 magnification. A confocal laser scanning microscope was used to visualize GFP expression of strain YC161 using an Olympus IX81 confocal laser scanning microscope (Japan) equipped with 488 nm argon-ion and 543 nm helium neon lasers.
Next, the effect of magnesium ions was visualized microscopically by testing bundling phenotype of fluorescently tagged B. subtilis cells (YC161 with Pspank-gfp), that produce GFP constitutively.

[11] = tested on: Bacillus subtilis NCIB 3610
Description: Additional experiments were conducted in order to evaluate the effect of magnesium ions on colony type biofilm formation by Bacillus subtilis on a solid surface. First a starter culture was prepared by growing bacteria from the strain Bacillus subtilis NCIB 3610 in an LB (Lysogeny broth) medium at 37° C., 150 rpm for 5 hours. […] Following these steps, 3 μl of the starter culture were spotted onto each of the solid biofilm promoting mediums. The samples were incubated at 30° C. for 72 hours prior to analysis. Images were taken using a Zeiss Stemi 2000-C microscope with an axiocam ERc 5s camera.

[12] = elevated concentrations of Mg2+ ions, pellicles in LBGM

Structure (SMILES): [Ca+2].[Cl-].[Cl-] [CaCl2]
- biofilm formation by B. subtilis [1]: none of those compounds could inhibit the biofilm formation in the same manner as MgCl2
- expression of the eps operon (epsA-O operon): not downregulated in a similar manner
- expression of the tapA operon (tapA operon [2]): not downregulated in a similar manner

Structure (SMILES): [Cl-].[Cl-].[Mg+2] [MgCl2, magnesium chloride]
- pellicle formation by B. subtilis [1]: inhibited notably pellicle formation by B. subtilis in a concentration dependent manner
- bacterial growth (B. subtilis NCIB3610): did not affect bacterial growth
- colony type biofilm formation within orange juice enriched medium (B. subtilis [3]): inhibits colony type biofilm formation
- reduction in eps expression (epsA-O operon; [12]): around 4 fold
- decrease in tapA expression (tapA operon [2]; [12]): ~14.5 fold
- biofilm bundles within milk (B. subtilis [4]; 5 mM increase of MgCl2 concentration): biofilm bundles are almost totally diminished
- biofilm formation by B. subtilis within milk (B. subtilis [4]; cow's milk, magnesium increase of 1, 3 or 5 mM): inhibit biofilm formation by B. subtilis within milk
- bacterial growth within milk (B. subtilis [4]; increased Mg ions concentration within milk): not significantly affected
- biofilm formation by B. subtilis within milk (B. subtilis [4]; magnesium concentration increased by 1 mM): inhibitory effect of Mg2+ ions is notable
- expression of the tapA operon within milk (tapA operon [5]): reduced drastically
- susceptibility of bacteria to heat pasteurization (B. subtilis [6]): increase the susceptibility of bacteria to heat pasteurization
- decrease in RCT ([7]; addition of 1 mM MgCl2): about 32%
- increase in curd firmness ([7]; addition of 1 mM MgCl2): about 37%
- decrease in RCT ([7]; addition of 3 mM MgCl2): ~51%
- increase in curd firmness ([7]; addition of 3 mM MgCl2): ~54%
- decrease in RCT ([7]; addition of 5 mM MgCl2): ~62%
- increase in curd firmness ([7]; addition of 5 mM MgCl2): ~69%
- decrease in RCT ([7]; addition of 7 mM MgCl2): ~70%
- increase in curd firmness ([7]; addition of 7 mM MgCl2): ~82%
- decrease in RCT ([7]; addition of 10 mM MgCl2): ~84%
- increase in curd firmness ([7]; addition of 10 mM MgCl2): ~84%
- decrease in RCT ([7]; addition of 15 mM MgCl2): ~73%
- increase in curd firmness ([7]; addition of 15 mM MgCl2): ~90%
- decrease in RCT ([7]; addition of 20 mM MgCl2): ~74%
- increase in curd firmness ([7]; addition of 20 mM MgCl2): ~72%
- pH of the milk [8]: does not affect the pH of the milk
- colony type biofilm formation [9]: inhibited significantly
- bundling ability of B. subtilis cells [10]: significant reduction in bundling ability
- biofilm formation by B. subtilis on solid surface ([11]; magnesium ions 20 mM or 50 mM spread onto a solid surface): reduced biofilm formation
- biofilm formation onto pre-treated surface, stronger effect ([11]; solution of 20 mM MgCl2 as printed (second sentence)): inhibitory effect is more significant
- biofilm formation by B. subtilis onto pre-treated surface ([11]; surface spread with solution of 20 mM MgCl2, 30° C., 72 h): inhibitory effect on biofilm formation

Structure (SMILES): O=S(=O)([O-])[O-].[Mg+2] [MgSO4, magnesium sulfate]
- pellicle formation by B. subtilis [1]: inhibited the pellicle formation

Structure (SMILES): [Cl-].[Na+] [NaCl]
- biofilm formation by B. subtilis [1]: none of those compounds could inhibit the biofilm formation in the same manner as MgCl2
- expression of the eps operon (epsA-O operon): not downregulated in a similar manner
- expression of the tapA operon (tapA operon [2]): not downregulated in a similar manner
